Drawing on patent publication US12410160B2 (Gilead Sciences, Inc., priority 2021, dated 2025), this text covers IC50 and EC50 for 19 compounds.

Structures are written as SMILES. Where two headings read alike, the source gives them in different places. Some results are limits rather than exact numbers.

Assay [1] concerns the target human KHK-C (Homo sapiens (Human), UniProt P50053). Briefly: KHK Biochemical Assay (IC50), ADP-Glo, KHK-C. To be noted: average of at least two separate assays. In outline: (§1)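 ADP-Glo luminescence measured ADP made over a 4 h room-temperature reaction of ATP plus fructose, started after 30 min compound–enzyme pre-incubation. Buffer: 50 mM Hepes pH 7.4, 140 mM KCl, 5 mM MgCl2, 0.01% Triton-X. Enzyme was His-tagged, BL21 (DE3)-expressed, Ni-NTA-purified; compounds in 1:3 DMSO dilution series.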
A general note: In ADP-Glo the light output rises with the ADP produced.

Assay [2] has as its target human OATP1B1 (Homo sapiens (Human), UniProt Q9Y6L6). Briefly: In Vitro Inhibition Assessment with Human OATP1B1 Transporter. The class given is in vitro ADME. The note with it: HEK293-OATP1B1 cells, probe substrate pravastatin. Here is the method:
In Vitro Inhibition Assessment with Human OATP1B1 and OATP1B3 Transporters Assay Protocol
The purpose of this assay was to assess the inhibition potential of test article (TA) toward human OATP1B1 and OATP1B3 transporters in vitro using cell lines transfected with the individual transporters. The assays used clinically relevant probe substrate pravastatin and a known positive control inhibitor rifampicin. HEK293 mock, HEK293-OATP1B1, and HEK293-OATP1B3 transfected cells were seeded onto CellCoat Poly-D-Lysine coated 96 well black cell culture plates with clear bottoms (Greiner bio-one, Cat. #655946) at a density of 70,000 cells/well and cultured to confluency overnight. Seeding media used was Dulbecco's Modification of Eagle's Medium (DMEM—with GlutaMAX high glucose; Gibco, Cat #: 10569-010) supplemented with 10% fetal bovine serum, 0.1 mM non-essential amino acids, 100 U/mL penicillin, and 100 μg/mL streptomycin. On assay day, media were removed from the assay plates and cells were washed with Hanks' Balanced Salt Solution (HBSS Buffer) (Corning, Cat. #21-023-CV). All TAs and reference inhibitor were serially diluted in DMSO to create spiking solutions at concentrations of 250-fold of final assay concentrations (final DMSO content 0.4%). Cells were preincubated with HBSS buffer containing test compounds for 15 minutes. After the removal of HBSS buffer, dose solution containing TA or reference inhibitor and probe substrate were added to the HEK293-OATP1B1, HEK-293-OATP1B3 and its associated mock cell plate, respectively. The co-incubation period of TAs with the corresponding probe substrate for all plates was 5 minutes. An aliquot of the dose solution was removed from the HEK293 mock cell plates and analysed for dose recovery. Cells were then washed three times with ice cold HBSS buffer and then immediately extracted with methanol:water (70:30 v:v) containing internal standard labetolol (30 nM). The supernatants were evaporated to dryness on injection plates and reconstituted in 80% water containing 20% acetonitrile and 0.1% formic acid for analysis by liquid chromatography with tandem mass spectrometry (LC-MS-MS).
Fractional transport activities were calculated from the equation: Activity %=(A−B)/(C−D)×100
• A: translocated amount of substrate in the presence of TA on transfected cells • B: translocated amount of substrate in the presence of TA on Mock cells • C: translocated amount of substrate in the presence of solvent on transfected cells • D: translocated amount of substrate in the presence of solvent on Mock cells
GraphPad Prism 7.0 (GraphPad Software Inc., San Diego, CA) was used for curve fitting and determination of reaction parameters. In uptake transporter inhibition assays, the IC50 (μM) was calculated, where applicable. IC50 was defined as the concentration of TA required to inhibit maximal activity by 50%.

Assay [3] concerns the target KHK-C expressed in NRK-52E cells (Homo sapiens (Human), UniProt P50053). Put plainly: KHK-C Cell-based Assay (EC50), NRK CTG, fructose-mediated ATP-depletion.
The target of assay [4] is human KHK-A (Homo sapiens (Human), UniProt P50053). Put plainly: KHK Biochemical Assay (IC50), ADP-Glo, KHK-A. The note with it: average of at least two separate assays. Summed up:
as §1

Assay [5] has as its system HepG2 cells. Put plainly: F1P Cell-Based Assay (EC50), 13C6-fructose-1-phosphate in HepG2 cells (cell culture medium or 50% human plasma). To be noted: Homo sapiens.

Sequence of human KHK-C (P50053 whole entry): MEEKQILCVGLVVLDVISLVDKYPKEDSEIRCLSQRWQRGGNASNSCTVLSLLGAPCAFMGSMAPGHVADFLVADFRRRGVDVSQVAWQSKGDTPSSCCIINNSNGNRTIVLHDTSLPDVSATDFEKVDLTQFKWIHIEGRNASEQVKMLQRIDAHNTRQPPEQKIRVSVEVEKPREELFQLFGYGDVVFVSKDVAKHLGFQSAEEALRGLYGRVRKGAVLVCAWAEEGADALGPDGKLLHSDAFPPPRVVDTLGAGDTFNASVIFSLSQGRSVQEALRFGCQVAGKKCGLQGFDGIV
Sequence of KHK-C expressed in NRK-52E cells (P50053 whole entry): as above
Sequence of human KHK-A (P50053 other isoform, or with tags, fused parts or gaps): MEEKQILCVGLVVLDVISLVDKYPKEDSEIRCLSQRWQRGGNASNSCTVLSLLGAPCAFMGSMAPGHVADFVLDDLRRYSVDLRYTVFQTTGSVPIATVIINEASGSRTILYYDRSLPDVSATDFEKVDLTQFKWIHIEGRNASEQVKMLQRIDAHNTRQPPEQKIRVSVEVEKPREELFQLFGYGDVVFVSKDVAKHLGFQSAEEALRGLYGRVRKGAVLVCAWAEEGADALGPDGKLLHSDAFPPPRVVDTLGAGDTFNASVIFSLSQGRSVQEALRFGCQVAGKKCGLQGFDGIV
Sequence of human OATP1B1 (Q9Y6L6 whole entry): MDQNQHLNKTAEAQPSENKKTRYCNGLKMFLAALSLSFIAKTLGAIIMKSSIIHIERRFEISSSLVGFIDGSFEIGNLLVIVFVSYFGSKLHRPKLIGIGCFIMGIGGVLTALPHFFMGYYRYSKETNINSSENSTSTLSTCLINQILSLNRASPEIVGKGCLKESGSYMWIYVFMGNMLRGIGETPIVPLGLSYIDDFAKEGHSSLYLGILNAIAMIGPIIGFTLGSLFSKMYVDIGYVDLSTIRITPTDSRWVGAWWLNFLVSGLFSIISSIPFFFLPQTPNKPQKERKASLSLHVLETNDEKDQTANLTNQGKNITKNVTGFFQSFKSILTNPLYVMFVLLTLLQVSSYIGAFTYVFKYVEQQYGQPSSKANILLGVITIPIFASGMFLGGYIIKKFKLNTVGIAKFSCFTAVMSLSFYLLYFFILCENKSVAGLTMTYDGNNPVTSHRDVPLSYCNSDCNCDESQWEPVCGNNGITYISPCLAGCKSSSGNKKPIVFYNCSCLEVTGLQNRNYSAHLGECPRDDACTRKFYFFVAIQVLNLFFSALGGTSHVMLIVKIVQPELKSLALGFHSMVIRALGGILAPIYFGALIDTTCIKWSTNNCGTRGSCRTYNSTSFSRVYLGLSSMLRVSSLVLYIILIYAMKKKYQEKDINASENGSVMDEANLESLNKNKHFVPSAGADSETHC

In general, IC50 refers to the point on the concentration scale where inhibition reaches its midpoint. High values mean lower potency, low ones higher potency. A word on the EC50: it is the midpoint of the concentration-response curve. With `C[C@H]1CCN1c1nc2c(c(-c3cccc(CCC(=O)O)c3)n1)CCC2` [Example 4, (S)-3-(3-(2-(2-methylazetidin-1-yl)-6,7-dihydro-5H-cyclopenta[d]pyrimidin-4-yl)phenyl)propanoic acid], the IC50 in assay [1] (ADP-Glo) came to 0.0461 µM; in assay [2], 0.928 µM; in assay [4] (ADP-Glo), 0.0414 µM. Moreover, it took 0.31 µM to reach a half-maximal effect in assay [3] (EC50).

As to `C[C@H]1CCN1c1nc2c(c(-c3cccc(C(=O)O)c3)n1)CCC2` [Example 9, (S)-3-(2-(2-methylazetidin-1-yl)-6,7-dihydro-5H-cyclopenta[d]pyrimidin-4-yl)benzoic acid], the IC50 is 0.0686 µM in assay [1] (ADP-Glo), 0.448 µM in assay [2] and 0.0489 µM in assay [4] (ADP-Glo). For the same compound, the 50% effective concentration (EC50) in assay [3] stood at 0.611 µM.

For `C[C@H]1[C@H](O)CN1c1nc2c(c(-c3ccc(C4(N)COC4)cc3)n1)CCC2` [Example 159, (2S,3R)-1-(4-(4-(3-aminooxetan-3-yl)phenyl)-6,7-dihydro-5H-cyclopenta[d]pyrimidin-2-yl)-2-methylazetidin-3-ol], the half-maximal inhibitory concentration (IC50) was 0.0101 µM in assay [1] (ADP-Glo), 7.4 µM in assay [2] and 0.0256 µM in assay [4] (ADP-Glo). In addition, the response in assay [3] was half-maximal at 0.0369 µM (EC50).

`C[C@H]1[C@H](O)CN1c1nc(-c2ccc(C(N)=O)c(OC(F)F)c2)c2c(n1)C(F)(F)CC2` [Example 182, 4-(7,7-difluoro-2-((2S,3R)-3-hydroxy-2-methylazetidin-1-yl)-6,7-dihydro-5H-cyclopenta[d]pyrimidin-4-yl)-2-(difluoromethoxy)benzamide]: the IC50 in assay [1] (ADP-Glo) is 0.0102 µM; in assay [2], 2.84 µM. The EC50 in assay [3] worked out at 0.156 µM.

With `C[C@H]1[C@H](O)CN1c1nc(-c2ccc3c(c2)C(=O)N(C)C3)c2c(n1)C(F)(F)CC2` [Example 236, 6-(7,7-difluoro-2-((2S,3R)-3-hydroxy-2-methylazetidin-1-yl)-6,7-dihydro-5H-cyclopenta[d]pyrimidin-4-yl)-2-methylisoindolin-1-one], the half-maximal inhibitory concentration (IC50) in assay [2] was determined as 1.39 µM. In assay [3], this compound came in with an EC50 of 0.0313 µM.

As to `C[C@H]1[C@H](O)CN1c1nc2c(c(-c3cccc(CNS(C)(=O)=O)c3)n1)CCC2` [Example 285], the concentration for half-maximal inhibition (IC50) was found to be 0.0478 µM in assay [1] (ADP-Glo), 1.26 µM in assay [2] and 0.0572 µM in assay [4] (ADP-Glo). Further, the EC50 in assay [3] was 0.0824 µM.

Consider `C[C@H]1CCN1c1nc(-c2ccc3c(=O)[nH]ccc3c2)c2c(n1)C(F)(F)CC2` [Example 317, (S)-6-(7,7-difluoro-2-(2-methylazetidin-1-yl)-6,7-dihydro-5H-cyclopenta[d]pyrimidin-4-yl)isoquinolin-1(2H)-one], for which the IC50 stood at 0.0017 µM in assay [1] (ADP-Glo), 0.284 µM in assay [2] and 0.0049 µM in assay [4] (ADP-Glo). This compound displayed an EC50 in assay [3] of 0.0035 µM.

On to `C[C@H]1[C@H](O)CN1c1nc(-c2cccc(S(N)(=O)=O)c2)c2c(n1)C(F)(F)CC2` [Example 322, 3-(7,7-difluoro-2-((2S,3R)-3-hydroxy-2-methylazetidin-1-yl)-6,7-dihydro-5H-cyclopenta[d]pyrimidin-4-yl)benzenesulfonamide], for which the IC50 in assay [1] (ADP-Glo) stood at 0.0074 µM; in assay [2] it was 13.3 µM; in assay [4] (ADP-Glo) it was 0.0051 µM. In assay [3], this compound had an EC50 of 0.0764 µM.

For the compound `C[C@H]1[C@H](O)CN1c1nc2c(c(-c3ccc4c(=O)[nH]ccc4c3)n1)CCC2` [Example 373, 6-[2-[(2S,3R)-3-hydroxy-2-methyl-azetidin-1-yl]-6,7-dihydro-5H-cyclopenta[d]pyrimidin-4-yl]-2H-isoquinolin-1-one], the IC50 in assay [1] (ADP-Glo) worked out at 0.0204 µM; in assay [2] it was 0.379 µM; in assay [4] (ADP-Glo), 0.054 µM. This compound also gave an EC50 in assay [3] of 0.0538 µM.

`C[C@H]1CCN1c1nc2c(c(-c3cc4c(N)nccc4s3)n1)CCC2` [Example 446, 2-[2-[(2S)-2-methylazetidin-1-yl]-6,7-dihydro-5H-cyclopenta[d]pyrimidin-4-yl]thieno[3,2-c]pyridin-4-amine]: the IC50 stood at 0.0034 µM in assay [1] and 1.81 µM in assay [2]. In assay [3], this compound returned a concentration for a half-maximal effect (EC50) of 0.005 µM.

For the compound `C[C@H]1[C@H](O)CN1c1nc2c(c(-c3cc4cc[nH]c(=O)c4s3)n1)CCC2` [Example 450, 2-[2-[(2S,3R)-3-hydroxy-2-methyl-azetidin-1-yl]-6,7-dihydro-5H-cyclopenta[d]pyrimidin-4-yl]-6H-thieno[2,3-c]pyridin-7-one], the IC50 in assay [1] was 0.0093 µM; in assay [2] it was 0.992 µM. Besides, the midpoint of the response in assay [3], the EC50, lay at 0.298 µM.

As for `C[C@H]1[C@H](O)CN1c1nc(-c2ccc3c(c2)COC[C@@H]3NS(C)(=O)=O)c2c(n1)C(F)(F)CC2` [Example 487, N—((R)-7-(7,7-difluoro-2-((2S,3R)-3-hydroxy-2-methylazetidin-1-yl)-6,7-dihydro-5H-cyclopenta[d]pyrimidin-4-yl)isochroman-4-yl)methanesulfonamide], the results for the IC50 in assay [1], in assay [2] and in assay [4] were 0.0016 µM, 9.77 µM and 0.014 µM, respectively. Also, the 50% effective concentration (EC50) came out at 0.0724 µM in assay [5] (HepG2, HepG2 cells, 50% human plasma, read-out: F1P 50% HP EC50) and 0.0119 µM in assay [5] (HepG2, read-out: F1P 10% FBS EC50, HepG2 cells, cell culture medium (10% FBS)).

In the case of `C[C@H]1[C@H](O)CN1c1nc(-c2ccc3c(c2)S(=O)(=O)NC3)c2c(n1)C(F)(F)CC2` [Example 598], the IC50 is 0.0024 µM in assay [1] and 3.14 µM in assay [2]. The compound also gave an EC50 in assay [3] of 0.0157 µM.

`C[C@H]1[C@H](O)CN1c1nc(-c2cnc3c(c2)OCCNC3=O)c2c(n1)C(F)(F)CC2` [Example 599]: the IC50 was found to be 0.0203 µM in assay [1] and 4.38 µM in assay [2]. Moreover, in assay [3], the concentration for a half-maximal effect (EC50) came to 4.9 µM.

Turning to `C[C@H]1[C@H](O)CN1c1nc(-c2cc3cc[nH]c(=O)c3s2)c2c(n1)C(F)(F)CC2` [Example 643, 2-[7,7-difluoro-2-[(2S,3R)-3-hydroxy-2-methyl-azetidin-1-yl]-5,6-dihydrocyclopenta[d]pyrimidin-4-yl]-6H-thieno[2,3-c]pyridin-7-one], the IC50 in assay [1] is 0.0026 µM; in assay [2], 0.798 µM. For the same compound, a half-maximal effect in assay [3] (EC50) was put at 0.0708 µM.

As for `C[C@H]1[C@H](O)CN1c1nc(-c2ccc(S(C)(=N)=O)cc2)c2c(n1)C(F)(F)CC2` (stereo partly drawn) [Example 715, (4-(7,7-difluoro-2-((2S,3R)-3-hydroxy-2-methylazetidin-1-yl)-6,7-dihydro-5H-cyclopenta[d]pyrimidin-4-yl)phenyl)(imino)(methyl)-λ^6-sulfanone], the IC50 in assay [1] amounted to 0.0352 µM; in assay [2], 30.5 µM. In assay [3], the EC50 came out at 0.258 µM.

In the case of `C[C@H]1[C@H](O)CN1c1nc(-c2ccc3c(c2)S(=N)(=O)CCNC3)c2c(n1)C(F)(F)CC2` (stereo partly shown) [Example 725], the figures for the IC50 in assay [1], in assay [2] and in assay [4] were 0.0009 µM, more than 40 µM and 0.0022 µM, respectively. For the same compound, the EC50 is 0.0377 µM in assay [5] (HepG2, read-out: F1P 10% FBS EC50) and 0.0235 µM in assay [5] (HepG2, read-out: F1P 50% HP EC50).

Regarding `C[C@H]1[C@H](O)CN1c1nc(-c2ccc(C3(O)CS(=O)(=O)C3)cc2)c2c(n1)C(F)(F)CC2` [Example 735], the results for the IC50 in assay [1] and in assay [2] were 0.0065 µM and 2.87 µM, respectively. Besides, in assay [3], the EC50 was found to be 0.0521 µM.

`C[C@H]1[C@H](O)CN1c1nc(-c2cc3c(c(C(N)=O)c2)CCO3)c2c(n1)C(F)(F)CC2` [Example 756, 6-[7,7-difluoro-2-[(2S,3R)-3-hydroxy-2-methyl-azetidin-1-yl]-5,6-dihydrocyclopenta[d]pyrimidin-4-yl]-2,3-dihydrobenzofuran-4-carboxamide]: the IC50 turned out to be 0.007 µM in assay [1] and 1.75 µM in assay [2]. Moreover, the EC50 in assay [3] stood at 0.0522 µM.
